In PubChem BioAssay (NCI):
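48-hour exposure; five concentrations; linearly interpolated endpoints. At the GI50, growth is halved. At the TGI there is no net growth.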

Key:
Assay in all cases: DTP human tumour cell line panel, 48 h
HCT-116 colon = tested on: HCT-116 colon
K-562 leukemia = tested on: K-562 leukemia
HS 578T breast = tested on: HS 578T breast
COLO 205 colon = tested on: COLO 205 colon
HT29 colon = tested on: HT29 colon
BT-549 breast = tested on: BT-549 breast
OVCAR-4 ovarian = tested on: OVCAR-4 ovarian
EKVX NSCLC = tested on: EKVX NSCLC
M14 melanoma = tested on: M14 melanoma
SF-295 CNS = tested on: SF-295 CNS
OVCAR-3 ovarian = tested on: OVCAR-3 ovarian
U251 CNS = tested on: U251 CNS
SR leukemia = tested on: SR leukemia
HOP-92 NSCLC = tested on: HOP-92 NSCLC
A498 renal = tested on: A498 renal
IGROV1 ovarian = tested on: IGROV1 ovarian
HOP-62 NSCLC = tested on: HOP-62 NSCLC
PC-3 prostate = tested on: PC-3 prostate
MOLT-4 leukemia = tested on: MOLT-4 leukemia
NCI-H226 lung = tested on: NCI-H226 lung
KM12 colon = tested on: KM12 colon
OVCAR-5 ovarian = tested on: OVCAR-5 ovarian
NCI-H460 lung = tested on: NCI-H460 lung
SK-MEL-2 melanoma = tested on: SK-MEL-2 melanoma
UACC-257 melanoma = tested on: UACC-257 melanoma
SK-MEL-28 melanoma = tested on: SK-MEL-28 melanoma
A549 NSCLC = tested on: A549 NSCLC
T-47D breast = tested on: T-47D breast
LOX IMVI melanoma = tested on: LOX IMVI melanoma
HCC-2998 colon = tested on: HCC-2998 colon
HCT-15 colon = tested on: HCT-15 colon
NCI-H522 lung = tested on: NCI-H522 lung
RPMI-8226 leukemia = tested on: RPMI-8226 leukemia
SNB-75 CNS = tested on: SNB-75 CNS
NCI-H23 lung = tested on: NCI-H23 lung
OVCAR-8 ovarian = tested on: OVCAR-8 ovarian
DU-145 prostate = tested on: DU-145 prostate
CAKI-1 renal = tested on: CAKI-1 renal
UO-31 renal = tested on: UO-31 renal
TK-10 renal = tested on: TK-10 renal
SW-620 colon = tested on: SW-620 colon
SK-MEL-5 melanoma = tested on: SK-MEL-5 melanoma
MALME-3M melanoma = tested on: MALME-3M melanoma
NCI/ADR-RES ovarian = tested on: NCI/ADR-RES ovarian
MDA-MB-231 breast = tested on: MDA-MB-231 breast
786-0 renal = tested on: 786-0 renal
SF-539 CNS = tested on: SF-539 CNS
SN12C renal = tested on: SN12C renal
ACHN renal = tested on: ACHN renal
CCRF-CEM leukemia = tested on: CCRF-CEM leukemia
UACC-62 melanoma = tested on: UACC-62 melanoma
RXF 393 renal = tested on: RXF 393 renal
HL-60(TB) leukemia = tested on: HL-60(TB) leukemia
SK-OV-3 ovarian = tested on: SK-OV-3 ovarian
MCF7 breast = tested on: MCF7 breast
SNB-19 CNS = tested on: SNB-19 CNS
SF-268 CNS = tested on: SF-268 CNS

## N#Cc1c(O)c2c(c(O)c1C#N)C(=O)c1ccccc1C2=O
HCT-116 colon
  GI50: 1300 nM
  TGI: 2940 nM
K-562 leukemia
  GI50: 1900 nM
  TGI: 6630 nM
HS 578T breast
  GI50: 1260 nM
  TGI: 5870 nM
COLO 205 colon
  GI50: 1780 nM
  TGI: 4130 nM
HT29 colon
  GI50: 563 nM
  TGI: 3960 nM
BT-549 breast
  GI50: 3770 nM
  TGI: 14900 nM
OVCAR-4 ovarian
  GI50: 1430 nM
  TGI: 3790 nM
EKVX NSCLC
  GI50: 3070 nM
  TGI: 26100 nM
M14 melanoma
  GI50: 410 nM
  TGI: 1920 nM
SF-295 CNS
  GI50: 1880 nM
  TGI: 14200 nM
OVCAR-3 ovarian
  GI50: 745 nM
  TGI: 2940 nM
U251 CNS
  GI50: 1920 nM
  TGI: 5540 nM
SR leukemia
  GI50: 1820 nM
  TGI: 5350 nM
HOP-92 NSCLC
  GI50: 2200 nM
  TGI: 5920 nM
A498 renal
  GI50: 1390 nM
  TGI: 16400 nM
IGROV1 ovarian
  GI50: 2890 nM
  TGI: 10800 nM
HOP-62 NSCLC
  GI50: 3440 nM
  TGI: 10500 nM
PC-3 prostate
  GI50: 1570 nM
  TGI: 7010 nM
MOLT-4 leukemia
  GI50: 2070 nM
  TGI: 5070 nM
NCI-H226 lung
  GI50: 2830 nM
  TGI: 25300 nM
KM12 colon
  GI50: 2590 nM
  TGI: 12100 nM
OVCAR-5 ovarian
  GI50: 3350 nM
  TGI: 8740 nM
NCI-H460 lung
  GI50: 1040 nM
  TGI: > 33800 nM
SK-MEL-2 melanoma
  GI50: 2660 nM
  TGI: 7730 nM
UACC-257 melanoma
  GI50: 1570 nM
  TGI: 4820 nM
SK-MEL-28 melanoma
  GI50: 1060 nM
  TGI: 3580 nM
A549 NSCLC
  GI50: 1620 nM
  TGI: 8020 nM
T-47D breast
  GI50: 2710 nM
  TGI: 9200 nM
LOX IMVI melanoma
  GI50: 349 nM
  TGI: 4290 nM
HCC-2998 colon
  GI50: 2510 nM
  TGI: 8590 nM
HCT-15 colon
  GI50: 2320 nM
  TGI: > 28100 nM
NCI-H522 lung
  GI50: 2000 nM
  TGI: 5920 nM
RPMI-8226 leukemia
  GI50: 1420 nM
  TGI: 4670 nM
SNB-75 CNS
  GI50: 1370 nM
  TGI: 3940 nM
NCI-H23 lung
  GI50: 621 nM
  TGI: 2700 nM
OVCAR-8 ovarian
  GI50: 2330 nM
  TGI: 6480 nM
DU-145 prostate
  GI50: 1190 nM
  TGI: 2500 nM
CAKI-1 renal
  GI50: 2650 nM
  TGI: 8300 nM
UO-31 renal
  GI50: 2300 nM
  TGI: 9810 nM
TK-10 renal
  GI50: 4200 nM
  TGI: 13800 nM
SW-620 colon
  GI50: 2500 nM
  TGI: 7550 nM
SK-MEL-5 melanoma
  GI50: 282 nM
  TGI: 1140 nM
MALME-3M melanoma
  GI50: 475 nM
  TGI: 1700 nM
NCI/ADR-RES ovarian
  GI50: 2120 nM
  TGI: 7250 nM
MDA-MB-231 breast
  GI50: 2010 nM
  TGI: 9550 nM
786-0 renal
  GI50: 2450 nM
  TGI: 5450 nM
SF-539 CNS
  GI50: 2600 nM
  TGI: 5530 nM
SN12C renal
  GI50: 1820 nM
  TGI: 4040 nM
ACHN renal
  GI50: 2720 nM
  TGI: 9960 nM
CCRF-CEM leukemia
  GI50: 2230 nM
  TGI: 5820 nM
UACC-62 melanoma
  GI50: 1050 nM
  TGI: 2850 nM
RXF 393 renal
  GI50: 1860 nM
  TGI: 6270 nM
HL-60(TB) leukemia
  GI50: 1440 nM
  TGI: 3640 nM
SK-OV-3 ovarian
  GI50: 3990 nM
  TGI: > 34900 nM
MCF7 breast
  GI50: 1460 nM
  TGI: 3760 nM
SNB-19 CNS
  GI50: 2860 nM
  TGI: 22200 nM
SF-268 CNS
  GI50: 2800 nM
  TGI: 16000 nM
